Experimental findings from PMC6379368, “Extracellular and intracellular small-molecule galectin-3 inhibitors” (Scientific Reports, 2019) are described below.

What all share (format): cell-based
One data set concerns BxPc-3 cells. As to the kind of experiment: MTT assay, BxPc-3 pancreatic cancer cells. The note with it: BxPc-3, 72 hours. As for the experimental part: (§1) The MTT (3-[4,5-dimethylthiazol-2-yl]−2,5-diphenyltetrazolium bromide) assays were performed as previously described. In brief, cells were seeded in 96-well plates (6000 cells/well for MCF-7 and HCC1937 and 5000 cells for JIMT-1 in 180 μl fully-supplemented medium as described under Cell culture). The cells were incubated for 24 hours before addition of galectin-3 inhibitors. The inhibitors were diluted in PBS from their respective stock solution in DMSO (see Galectin-3 inhibitors) and used at final concentrations ranging from 0.04 to 40 μM. DMSO was adjusted to make the final DMSO concentration 0.2% for all inhibitor concentrations, including the control sample (no inhibitor). After 72 hours of treatment, 20 μl of 5 mg/ml MTT solution (in PBS) was added to each well and incubation continued for 1 hour at 37 °C. […] Absorbance was monitored at 540 nm using a Labsystems iEMS Reader MF (Labsystems Oy, Helsinki, Finland) and the software DeltaSoft II v.4.14 (Biometallics Inc., Princeton, NJ, USA). […]
(§2) Fluorescence anisotropy assay
(§3) The affinity between inhibitor 1 and the carbohydrate recognition domain (CRD) of galectin-8C and between inhibitor 3 and the CRD of galectin-2, -4N, -4C, 8C, and -9C was determined using the fluorescence anisotropy assay described in the main article. […]

In a further data set the test system is PanC-1 cells. As to the kind of experiment: MTT assay, PanC-1 pancreatic cancer cells. The note with it: PanC-1, 72 hours. As for the experimental part: as §1, §2, §3
A further data set deals with galectin-3 (Homo sapiens, UniProt P17931). In words: GPN-induced galectin-3 accumulation (puncta) in JIMT-1 breast cancer cells. Also on record: In the intracellular assay, in contrast, only endogenous galectin was present; endogenous in cells; host or cells: JIMT-1 breast cancer cells. The protocol:
The total number of galectin-3 puncta and nuclei in the microscopy images were quantified using the software ImageJ.
Cells were seeded in multi-well plates with sterile glass coverslips placed in each well and allowed to adhere to the cell culture surface for at least 24 hours. Then the cells were pre-treated with the different galectin-3 inhibitors at different concentrations (or DMSO as control) for 15 minutes or 24 hours followed by addition of the lysosomal damaging peptide GPN[42] and incubated another 13 minutes, with the inhibitors still present. The 13-minute incubation with GPN and 15-minute pre-incubation with inhibitors were done in DMEM/Ham’s F12 medium with 15 mM HEPES buffer (without serum), whereas the 24-hour incubation with inhibitors were performed in fully supplemented DMEM/Ham’s F12 medium (as described under Cell culture).
After treatment with GPN, the cells were fixed in 3.7% (v/v) formaldehyde in phosphate-buffered saline (PBS) for 15 minutes, permeabilized and blocked using 1% (v/v) TWEEN 20 and 5% (w/v) BSA in PBS for 30 minutes, then incubated with primary and secondary antibodies for one hour each (washed with PBS in between). Primary and secondary antibodies for galectin-3 staining were a rat anti-mouse galectin-3 IgG antibody[50],[51] […] All antibodies were diluted in 0.05% TWEEN 20 and 5% BSA in PBS. […] The coverslips were mounted on glass slides using Mowiol® 4–88 and left at 8 °C overnight before further examination. For imaging of the cells, a LSM-510 confocal laser scanning microscope (Carl Zeiss Microscopy GmbH, Oberkochen, Germany), equipped with a Hamamatsu R6357 photomultiplier (Hamamatsu Photonics K.K., Hamamatsu, Japan), was used. […] Maximum intensity projections of each picture obtained were analyzed with ImageJ 1.47 v (Rasband, W.S., ImageJ, U. S. National Institutes of Health, Bethesda, Maryland, USA) to quantify the number of galectin-3 dots and the number of nuclei in each picture. The quantification of particles (i.e. galectin-3 puncta/nucleus) was carried out using batch processing in the software, where a single macro (including parameters such as image thresholds, particle size and circularity) was used for all images obtained from a single experiment, this to reduce user bias and time consumption.

galectin-3, sequence (P17931 whole entry): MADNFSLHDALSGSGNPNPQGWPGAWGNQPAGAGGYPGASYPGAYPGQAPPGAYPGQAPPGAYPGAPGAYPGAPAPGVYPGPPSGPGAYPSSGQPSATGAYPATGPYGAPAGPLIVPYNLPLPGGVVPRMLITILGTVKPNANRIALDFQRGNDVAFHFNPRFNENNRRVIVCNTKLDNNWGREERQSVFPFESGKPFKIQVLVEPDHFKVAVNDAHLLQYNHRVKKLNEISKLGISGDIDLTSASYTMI

Take `OC[C@H]1O[C@@H](S[C@@H]2O[C@H](CO)[C@H](O)[C@H](n3cc(-c4cccc(F)c4)nn3)[C@H]2O)[C@H](O)[C@@H](n2cc(-c3cccc(F)c3)nn2)[C@H]1O` [compound 1]: the “toxicity (MTT)” value in the data set with BxPc-3 cells and in the data set on PanC-1 cells was “low toxicity” throughout. Besides, the “inhibition of galectin-3 accumulation (extent)” value is listed as “complete inhibition of galectin-3 accumulation could not be reached” on galectin-3 (15 minutes pre-treatment, high concentrations 50–100 µM) and “nearly complete inhibition” at galectin-3 (24 hours pre-treatment, around 1–5 µM).
